Assay results from the NIST ThermoML archive (doi:10.1021/je100864e).

Test: mn = molality of the nth substance listed, in mol/kg
Details: 101 kPa, Liquid; for speed of sound: Pulse-echo method

O=C([O-])CC(O)(CC(=O)[O-])C(=O)O.[Na+].[Na+] [disodium hydrogen citrate] + O
mass density [kg/m3]
Details | 288.15 K | 293.15 K | 298.15 K | 303.15 K | 308.15 K
m1 = 0.0095 | 1000.55 | 999.632 | 998.455 | 997.044 | 995.414
m1 = 0.0114 | 1000.84 | 999.92 | 998.74 | 997.324 | 995.691
m1 = 0.0133 | 1001.13 | 1000.21 | 999.021 | 997.605 | 995.97
m1 = 0.015 | 1001.38 | 1000.46 | 999.268 | 997.849 | 996.213
m1 = 0.0172 | 1001.71 | 1000.78 | 999.588 | 998.164 | 996.524
m1 = 0.0187 | 1001.93 | 1000.99 | 999.8 | 998.374 | 996.735
m1 = 0.021 | 1002.28 | 1001.35 | 1000.15 | 998.719 | 997.077
m1 = 0.0229 | 1002.56 | 1001.62 | 1000.42 | 998.99 | 997.344
m1 = 0.0267 | 1003.12 | 1002.18 | 1000.97 | 999.532 | 997.881
m1 = 0.0307 | 1003.73 | 1002.77 | 1001.56 | 1000.12 | 998.461
m1 = 0.0344 | 1004.28 | 1003.32 | 1002.1 | 1000.65 | 998.99
m1 = 0.0374 | 1004.73 | 1003.76 | 1002.54 | 1001.09 | 999.421
m1 = 0.057 | 1007.64 | 1006.63 | 1005.38 | 1003.9 | 1002.21
m1 = 0.0771 | 1010.58 | 1009.54 | 1008.25 | 1006.75 | 1005.03
m1 = 0.0953 | 1013.22 | 1012.15 | 1010.84 | 1009.31 | 1007.58
m1 = 0.1157 | 1016.16 | 1015.05 | 1013.71 | 1012.16 | 1010.4
m1 = 0.1332 | 1018.67 | 1017.54 | 1016.17 | 1014.59 | 1012.82
m1 = 0.1542 | 1021.64 | 1020.48 | 1019.09 | 1017.48 | 1015.68
m1 = 0.1773 | 1024.9 | 1023.7 | 1022.26 | 1020.63 | 1018.81
m1 = 0.1964 | 1027.57 | 1026.33 | 1024.88 | 1023.22 | 1021.38
m1 = 0.2144 | 1030.07 | 1028.81 | 1027.33 | 1025.66 | 1023.8
m1 = 0.2229 | 1031.25 | 1029.97 | 1028.48 | 1026.8 | 1024.93
m1 = 0.2509 | 1035.09 | 1033.78 | 1032.26 | 1030.54 | 1028.64
m1 = 0.283 | 1039.47 | 1038.11 | 1036.55 | 1034.8 | 1032.87
m1 = 0.2965 | 1041.3 | 1039.92 | 1038.34 | 1036.58 | 1034.63
m1 = 0.3375 | 1046.82 | 1045.39 | 1043.77 | 1041.96 | 1039.98

O=C([O-])CC(O)(CC(=O)O)C(=O)O.[Na+] [sodium dihydrogen citrate] + O
Details | mass density, 288.15 K [kg/m3] | mass density, 293.15 K [kg/m3] | mass density, 298.15 K [kg/m3] | mass density, 303.15 K [kg/m3] | mass density, 308.15 K [kg/m3] | speed of sound, 288.15 K [m/s] | speed of sound, 293.15 K [m/s] | speed of sound, 298.15 K [m/s] | speed of sound, 303.15 K [m/s] | speed of sound, 308.15 K [m/s]
m1 = 0.0093 | 1000.17 | 999.26 | 998.086 | 996.675 | 995.048 | 1467.7 | 1483.7 | 1497.9 | 1510.2 | 1520.8
m1 = 0.0117 | 1000.44 | 999.519 | 998.341 | 996.93 | 995.3 | 1467.9 | 1483.9 | 1498.1 | 1510.4 | 1521
m1 = 0.0125 | 1000.53 | 999.616 | 998.436 | 997.022 | 995.39 | 1468 | 1484 | 1498.2 | 1510.5 | 1521.1
m1 = 0.0138 | 1000.68 | 999.756 | 998.576 | 997.161 | 995.527 | 1468.1 | 1484.1 | 1498.3 | 1510.6 | 1521.2
m1 = 0.0155 | 1000.87 | 999.956 | 998.772 | 997.353 | 995.72 | 1468.3 | 1484.3 | 1498.5 | 1510.8 | 1521.4
m1 = 0.0163 | 1000.97 | 1000.04 | 998.856 | 997.436 | 995.802 | 1468.4 | 1484.4 | 1498.5 | 1510.8 | 1521.4
m1 = 0.0187 | 1001.24 | 1000.31 | 999.125 | 997.702 | 996.063 | 1468.7 | 1484.7 | 1498.8 | 1511 | 1521.6
m1 = 0.0202 | 1001.42 | 1000.49 | 999.296 | 997.872 | 996.232 | 1468.9 | 1484.8 | 1498.9 | 1511.2 | 1521.8
m1 = 0.0209 | 1001.49 | 1000.56 | 999.364 | 997.94 | 996.299 | 1468.9 | 1484.9 | 1499 | 1511.3 | 1521.8
m1 = 0.024 | 1001.85 | 1000.91 | 999.72 | 998.29 | 996.648 | 1469.3 | 1485.2 | 1499.3 | 1511.5 | 1522.1
m1 = 0.0279 | 1002.29 | 1001.35 | 1000.15 | 998.715 | 997.067 | 1469.8 | 1485.6 | 1499.7 | 1511.9 | 1522.4
m1 = 0.0327 | 1002.84 | 1001.89 | 1000.68 | 999.246 | 997.594 | 1470.2 | 1486 | 1500.1 | 1512.3 | 1522.8
m1 = 0.0376 | 1003.39 | 1002.44 | 1001.22 | 999.776 | 998.119 | 1470.8 | 1486.6 | 1500.6 | 1512.7 | 1523.2
m1 = 0.0409 | 1003.78 | 1002.82 | 1001.6 | 1000.15 | 998.486 | 1471.1 | 1486.9 | 1500.9 | 1513.1 | 1523.5
m1 = 0.047 | 1004.47 | 1003.49 | 1002.27 | 1000.81 | 999.141 | 1471.8 | 1487.6 | 1501.5 | 1513.6 | 1524
m1 = 0.0681 | 1006.85 | 1005.84 | 1004.59 | 1003.11 | 1001.41 | 1474 | 1489.7 | 1503.5 | 1515.5 | 1525.8
m1 = 0.0937 | 1009.71 | 1008.67 | 1007.38 | 1005.86 | 1004.15 | 1476.8 | 1492.3 | 1505.9 | 1517.8 | 1527.9
m1 = 0.1194 | 1012.55 | 1011.47 | 1010.14 | 1008.6 | 1006.86 | 1479.5 | 1494.8 | 1508.3 | 1520 | 1530.1
m1 = 0.144 | 1015.25 | 1014.13 | 1012.77 | 1011.2 | 1009.44 | 1482 | 1497.2 | 1510.5 | 1522.1 | 1532
m1 = 0.1678 | 1017.83 | 1016.68 | 1015.29 | 1013.7 | 1011.91 | 1484.6 | 1499.6 | 1512.7 | 1524.2 | 1534
m1 = 0.1911 | 1020.35 | 1019.17 | 1017.76 | 1016.13 | 1014.32 | 1487 | 1501.8 | 1514.9 | 1526.2 | 1535.8
m1 = 0.2165 | 1023.07 | 1021.86 | 1020.42 | 1018.77 | 1016.93 | 1489.5 | 1504.1 | 1517 | 1528.2 | 1537.8
m1 = 0.2412 | 1025.7 | 1024.45 | 1022.98 | 1021.31 | 1019.45 | 1492 | 1506.5 | 1519.3 | 1530.3 | 1539.8
m1 = 0.2934 | 1031.2 | 1029.89 | 1028.36 | 1026.63 | 1024.72 | 1497.3 | 1511.5 | 1524 | 1534.7 | 1543.9
m1 = 0.3205 | 1034.04 | 1032.69 | 1031.13 | 1029.38 | 1027.44 | 1500 | 1514 | 1526.3 | 1537 | 1546
m1 = 0.3395 | 1036.01 | 1034.64 | 1033.06 | 1031.28 | 1029.33 | 1501.8 | 1515.8 | 1528 | 1538.5 | 1547.5
m1 = 0.3728 | 1039.43 | 1038.03 | 1036.41 | 1034.6 | 1032.62 | 1505.1 | 1518.8 | 1530.9 | 1541.2 | 1550
m1 = 0.3936 | 1041.57 | 1040.14 | 1038.5 | 1036.67 | 1034.67 | 1507.1 | 1520.7 | 1532.7 | 1542.9 | 1551.6
